SMILES strings stand for the structures.

One assay has as its system mast cell degranulation. The assay is described as follows: Serotonin release assay (inhibition of mast cell degranulation). The settings on record: 50 μM; for RELEASE-SPONT / AVERAGE % RELEASE / inhibition at 50 µM: Table 4; for RELEASE-SPONT: average corrected for spontaneous release; for AVERAGE % RELEASE: average of duplicates; for inhibition at 50 µM: Mast cell. It counts as cell-based. From the text:
A serotonin release assay is utilized to study the utility of the inventive compounds for treatment of asthma and allergy. […] This assay measures mast cell degranulation, which is an early phase reaction to allergen challenge. Mast cells grown in tissue culture are first loaded with ^3 H serotonin, which is incorporated into the granules in the cells. The mast cells are sensitized with antigen specific monoclonal IgE, and then triggered to degranulate with the specific antigen (dinitorphenolbound to BSA (DNP)). When the cells degranulate, ^3 H Serotonin is released into the medium, and can be measured directly. The ability of the inventive compounds to inhibit the degranulation response is determined by the decrease in ^3 H Serotonin released in the presence of drug and is represented as % INHIBITION.
Specifically, the serotonin release assay seeds 2×10^5 cells in 0.5 ml medium in duplicate for spontaneous release, IgE+DNP, IgE+DNP+EtOH (vehicle control), and inventive compounds. […] The cells are incubated for 18 hours at 37° C. in 5% CO2, washed twice with 0.5 ml Isotonic Buffer (25 mM disodium PIPES pH 7.1,100 mM NaCl, 5 mM KCl, 5 mM glucose, 0.4 mM MgCl2, 1mM CaCl2, 0.1% BSA), and sterile filtered. 250 μl Isotonic Buffer is added per well and the plates are equilibrated in an incubator for about 10 min. Drug is added and cells are activated with 40 ng/ml DNP-BSA (1 mg/ml Diluted 1:200 in Isotonic Buffer) for 45 minutes using 2 μl/250 μl. Spontaneous release is determined in incubated cells with 250 μl Isotonic Buffer for 45 minutes and the reaction is stopped by removing supernatant and centrifuging at ~4000 rpm in microfuge for 15 seconds to remove any detached cells. Released radiolableled serotonin is counted. To determine amount of ^3 H-serotonin incorporated into the cells, (a) remove Isotonic Buffer and lyse cells by adding 250 μl 1% Triton-X100 in PBS, (b) add to 5 ml scintillation fluid, (c) wash 2× with Triton/PBS, and (d) add washes to scintillation tube. Percent serotonin release is calculated by dividing the amount of released serotonin by the sum of incorporated plus released serotonin and correcting for spontaneous released serotonin. Compound inhibition is calculated by dividing the percent serotonin release in the presence of a compound by the percent serotonin release in the absence of the compound.
This assay is described above and provides an in vitro model for an allergy and asthma therapeutic product.

Assay [1] relates to CMV promoter activity in transformed (adenovirus) cells. The assay is described as follows: CMV promoter assay (gene transcription and translation; cytotoxicity in transformed cells). It is filed as cell-based. An excerpt:
FIG. 18 illustrates data regarding proliferative activity of various inventive compounds for inducting CMV promoter activity. The CMV promoter assay measures gene transcription and translation activity wherein any active compounds will have cytotoxic activity to inhibit cellular protein synthesis machinery in transformed (adenovirus) cells.
This example illustrates data regarding proliferative activity of various inventive compounds for inducting CMV promoter activity. The CMV promoter assay measures gene transcription and translation activity wherein any active compounds will have cytotoxic activity to inhibit cellular protein synthesis machinery in transformed (adenovirus) cells.

One may read the inhibition as the change of the read-out against control, counted positive when it falls. What is called IC50 is the concentration needed to halve the response being measured. As to `C=CCCCCN1C(=O)c2ccccc2C1=O` [CT1101, N(5-hexenyl)phthalimide], in the assay on mast cell degranulation, the RELEASE-SPONT is recorded as 2.05%, the “AVERAGE % RELEASE” value is 18.60% and the inhibition at 50 µM turned out to be 74.5%. Moreover, half-maximal inhibition in assay [1] (IC50) was put at 250 µM.
For `C=CCCCCCCCN1C(=O)c2ccccc2C1=O` [CT1102, N(8-nonenyl)phthalimide], in the assay with mast cell degranulation, the RELEASE-SPONT came out at 2.32%, the “AVERAGE % RELEASE” value is 18.88% and the inhibition at 50 µM was 71.1%. The IC50 in assay [1] is 175 µM.
Regarding `C=CCCCCn1c(=O)n(C)c(=O)c2ccccc21` [CT1203, 1-(5-hexenyl)-3-methylbenzoyleneurea], in the assay on mast cell degranulation, the “activity in serotonin release assay” value is on record as “appear to be quite potent”, the RELEASE-SPONT was -1.12%, the “AVERAGE % RELEASE” value came to 15.43% and the inhibition at 50 µM amounted to 114%.
Take `C=CCCCCCCCn1c(=O)c2[nH]cnc2n(C)c1=O` [CT1405, 1-(8-nonenyl)-3-methylxanthine]: in the assay with mast cell degranulation, the RELEASE-SPONT worked out at 5.13%, the “AVERAGE % RELEASE” value is 21.69% and the inhibition at 50 µM came to 36%. For the same molecule, the IC50 in assay [1] was 100 µM.
`C=CCCCCn1c(=O)c2[nH]cnc2n(C)c1=O` [CT1438, 1-(5-hexenyl)-3-methylxanthine]: in assay [1], the IC50 is above 500 µM.
Consider `C=CCn1c(=O)c2c(ncn2C)n(C)c1=O` [CT1531, 1-(2-propenyl)-3,7-dimethylxanthine], for which, in the assay on mast cell degranulation, the RELEASE-SPONT was 6.99%, the “AVERAGE % RELEASE” value amounted to 23.55% and the inhibition at 50 µM stood at 12.8%. In assay [1], the IC50 came out at 50 µM.
For the molecule `CC/C=C\CCCCCN1C(=O)CCCC1=O` [CT1607, N-(6-cis-nonenyl)glutarimide], in the assay with mast cell degranulation, the “activity in serotonin release assay” value is “appears to decrease the activity”, the RELEASE-SPONT amounted to 3.82%, the “AVERAGE % RELEASE” value amounted to 20.38% and the inhibition at 50 µM is 52.3%.
With `C=CCCCCCCCCCN1C(=O)CCCC1=O` [CT1610, N-(10-undecenyl)glutarimide], in the assay with mast cell degranulation, the RELEASE-SPONT amounted to 2.27%, the “AVERAGE % RELEASE” value is recorded as 18.83% and the inhibition at 50 µM was 71.7%.
For `C=CCCCCCCCCCN1C(=O)CCN(C)C1=O` [CT1819, 3-(10-undecenyl)-1-methyldihydrouracil], in the assay on mast cell degranulation, the “activity in serotonin release assay” value is “just not having much of an effect at 50 μM”, the RELEASE-SPONT came out at 9.42%, the “AVERAGE % RELEASE” value turned out to be 25.98% and the inhibition at 50 µM is -17.5%. Besides, the “% INHIBITION (serotonin release)” value with mast cell degranulation (Table 3) is given as “no inhibi-”.
Consider `C=CCCCCCCCCCn1c(=O)ccn(C)c1=O` [CT1823, 3-(10-undecenyl)1-methyluracil], for which, in the assay with mast cell degranulation, the RELEASE-SPONT stood at 4.72%, the “AVERAGE % RELEASE” value stood at 21.28% and the inhibition at 50 µM was 41.1%.
`C=CCCCCCCCCCn1c(=O)c(C)cn(C)c1=O` [CT1931, 3-(10-undecenyl)-1-methylthymine]: in the assay on mast cell degranulation, the RELEASE-SPONT amounted to 2.23%, the “AVERAGE % RELEASE” value stood at 18.78% and the inhibition at 50 µM was determined as 72.2%.
For the molecule `C=CCCCCCCCCCCn1c(=O)c2c(ncn2C)n(C)c1=O` [CT2516, 1-(11-dodecenyl)-3,7-dimethylxanthine], in the assay with mast cell degranulation, the RELEASE-SPONT is recorded as 5.57%, the “AVERAGE % RELEASE” value is listed as 22.12% and the inhibition at 50 µM worked out at 30.6%.
As to `C=CCCCCCCCCCCCn1c(=O)c2c(ncn2C)n(C)c1=O` [CT2555, 1-(12-tridecenyl)-3,7-dimethylxanthine], in the assay with mast cell degranulation, the RELEASE-SPONT was 5.72%, the “AVERAGE % RELEASE” value is given as 21.68% and the inhibition at 50 µM came to 36.1%.
On to `CC/C=C\CCCCCCn1c(=O)c2c(ncn2C)n(C)c1=O` [CT2560, 1-(7-cis-decenyl)-3,7-dimethylxanthine], for which, in the assay with mast cell degranulation, the “activity in serotonin release assay” value is given as “appears to increase the activity”, the RELEASE-SPONT came out at 2.96%, the “AVERAGE % RELEASE” value turned out to be 19.51% and the inhibition at 50 µM worked out at 63.1%.
